Assay results: patent US20250313563A1, “GLYCOGEN SYNTHASE KINASE 3 INHIBITORS AND USES THEREOF” (The Broad Institute, Inc., priority 2022, published 2025)
Read-outs that look alike come from different tables or passages of the source.

How the values were obtained:
[1] = target: GSK3α (GST-full length GSK3α) (Homo sapiens (Human), UniProt P49840); experiment: GSK3α TR-FRET kinase assay; type: biochemical
In short: (§1)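 IC50s came from the normalized 665/615 TR-FRET ratio after Tb-anti-pSer641 antibody and streptavidin-d2 detection of phosphorylated biotin-glycogen synthase peptide (200 nM). ATP was 4 μM for GSK3α, 2 μM for GSK3b, or 1 mM; 1 nM enzyme, 100 min, ambient, pH 7.5, after 30-min compound preincubation.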

[2] = target: GSK3b (GST-full length GSK3b) (Homo sapiens (Human), UniProt P49841); experiment: GSK3b TR-FRET kinase assay; type: biochemical
Chain of GSK3b (GST-full length GSK3b) (P49841 whole entry): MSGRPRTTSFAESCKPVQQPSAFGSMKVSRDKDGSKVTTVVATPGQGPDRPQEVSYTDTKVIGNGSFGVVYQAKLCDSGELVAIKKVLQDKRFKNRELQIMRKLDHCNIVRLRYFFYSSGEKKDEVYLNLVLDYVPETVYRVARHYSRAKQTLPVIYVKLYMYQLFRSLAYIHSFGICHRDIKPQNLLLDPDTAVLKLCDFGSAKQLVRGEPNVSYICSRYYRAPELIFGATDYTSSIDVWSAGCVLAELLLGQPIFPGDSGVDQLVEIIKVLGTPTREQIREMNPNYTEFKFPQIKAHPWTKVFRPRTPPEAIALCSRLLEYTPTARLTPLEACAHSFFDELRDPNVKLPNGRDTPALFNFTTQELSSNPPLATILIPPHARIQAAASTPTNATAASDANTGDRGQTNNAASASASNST
In short: as §1

[3] = 1 nM GSK3α, 4 μM ATP, 30 minute preincubation, read-out: GSK3-A TR-FRET BIOCHEMICAL (TR-FRET), IC50
[4] = 1 nM GSK3b, 2 μM ATP, 30 minute preincubation, read-out: GSK3-B TR-FRET BIOCHEMICAL (TR-FRET), IC50
[5] = 1 nM GSK3α, 4 μM ATP, 30 minute preincubation, Table 16, read-out: GSK3-A TR-FRET BIOCHEMICAL (TR-FRET)
[6] = 1 nM GSK3b, 2 μM ATP, 30 minute preincubation, Table 16, read-out: GSK3-B TR-FRET BIOCHEMICAL (TR-FRET)
[7] = 1 nM GSK3α, 4 μM ATP, 30 minute preincubation, Table 16, read-out: GSK3-A TR-FRET BIOCHEMICAL (TR-FRET), IC50
[8] = 1 nM GSK3b, 2 μM ATP, 30 minute preincubation, Table 16, read-out: GSK3-B TR-FRET BIOCHEMICAL (TR-FRET), IC50
[9] = read-out: GSK3-A (TR-FRET 1 mM ATP), GMean, IC50, 1 mM ATP, geometric mean
[10] = read-out: GSK3-B (TR-FRET 1 mM ATP), GMean, IC50, 1 mM ATP, geometric mean

Chain of GSK3α (GST-full length GSK3α) (P49840 whole entry): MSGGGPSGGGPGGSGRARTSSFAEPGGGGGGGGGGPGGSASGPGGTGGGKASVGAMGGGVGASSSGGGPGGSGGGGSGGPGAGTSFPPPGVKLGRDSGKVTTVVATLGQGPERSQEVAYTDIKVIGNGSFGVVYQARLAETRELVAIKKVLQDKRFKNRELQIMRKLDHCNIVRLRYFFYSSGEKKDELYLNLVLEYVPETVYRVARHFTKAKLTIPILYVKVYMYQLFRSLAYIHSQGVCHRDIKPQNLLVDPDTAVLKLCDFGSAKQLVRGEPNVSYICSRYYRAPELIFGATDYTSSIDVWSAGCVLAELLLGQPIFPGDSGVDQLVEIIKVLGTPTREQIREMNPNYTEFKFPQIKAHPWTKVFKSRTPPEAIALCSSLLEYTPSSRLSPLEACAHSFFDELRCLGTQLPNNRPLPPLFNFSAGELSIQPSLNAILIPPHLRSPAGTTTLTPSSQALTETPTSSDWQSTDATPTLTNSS

| Structure (SMILES) | IC50 [1, 3] [nM] | IC50 [2, 4] [nM] | IC50 [1, 5] [nM] | IC50 [2, 6] [nM] | also measured |
| --- | --- | --- | --- | --- | --- |
| CC[C@@]1(c2cccc(C(F)(F)F)c2)C2=C(CN(c3ccccc3)C2=O)Nc2n[nH]cc21 [Compound 945376] | > 5000 | > 5000 |  |  |  |
| CCC1(c2cccc(C(F)(F)F)c2)C2=C(CN(c3ccccc3)C2=O)Nc2n[nH]cc21 (stereo not drawn) [Compound 945377] | 100 to 1000 | 1000 to 5000 |  |  |  |
| CCC1(c2cccc(C(F)(F)F)c2)C2=C(Nc3n[nH]cc31)C(C)NC2=O (stereo not drawn) [Compound 945378] | ≤ 100 | 100 to 1000 |  |  |  |
| CCC1(c2cccc(C(F)(F)F)c2)C2=C(Nc3n[nH]cc31)C(C)NC2=O (stereo not drawn) [Compound 945379] | 100 to 1000 | 1000 to 5000 |  |  |  |
| CC[C@]1(c2cccc(C(F)(F)F)c2)C2=C(Nc3n[nH]cc31)[C@@H](C)NC2=O [Compound 945380] | > 5000 | > 5000 |  |  |  |
| CC[C@]1(c2cccc(C(F)(F)F)c2)C2=C(Nc3n[nH]cc31)[C@H](C)NC2=O [Compound 945381] | > 5000 | > 5000 |  |  |  |
| CCC1(c2cccc(C(F)(F)F)c2)C2=C(Nc3n[nH]cc31)C(C)CNC2=O (stereo not drawn) [Compound 945382] | ≤ 100 | 100 to 1000 |  |  |  |
| CC[C@@]1(c2cccc(C(F)(F)F)c2)C2=C(Nc3n[nH]cc31)[C@H](C)CNC2=O [Compound 945383] | ≤ 100 | 100 to 1000 |  |  |  |
| CCC1(c2cccc(C(F)(F)F)c2)C2=C(Nc3n[nH]cc31)C(C)CNC2=O (stereo not drawn) [Compound 945384] | 1000 to 5000 | > 5000 |  |  |  |
| CC[C@]1(c2cccc(C(F)(F)F)c2)C2=C(Nc3n[nH]cc31)[C@H](C)CNC2=O [Compound 945385] | > 5000 | > 5000 |  |  |  |
| CC1(C)CC(=O)C2=C(C1)Nc1n[nH]cc1C21CCC(C(=O)N2CCCC2)CC1 (stereo not drawn) [Compound 945394] |  |  | 100 to 1000 | 1000 to 5000 |  |
| CN(C)C(=O)C1CCC2(CC1)C1=C(CC(C)(C)CC1=O)Nc1n[nH]cc12 (stereo not drawn) [Compound 945395] |  |  |  |  | IC50 [1, 7]: 100 to 1000 nM; IC50 [2, 8]: 1000 to 5000 nM |
| CC1(C)CC(=O)C2=C(C1)Nc1n[nH]cc1C21CCC(C(=O)N2CCCC2)CC1 (stereo not drawn) [Compound 945396] |  |  | 100 to 1000 | 100 to 1000 |  |
| CNC(=O)C1CCC2(CC1)C1=C(CC(C)(C)CC1=O)Nc1n[nH]cc12 (stereo not drawn) [Compound 945397] |  |  | 100 to 1000 | 100 to 1000 |  |
| CC1(C)CC(=O)C2=C(C1)Nc1n[nH]cc1C21COC2(CN(C(=O)C3CCOCC3)C2)C1 (stereo not drawn) [Compound 945407] | ≤ 100 | 100 to 1000 |  |  |  |
| CCC1(c2cccc(-c3ccnc(C)c3OC)c2)C2=C(CC(C)(C)CC2=O)Nc2n[nH]cc21 (stereo not drawn) [Compound 945458] |  |  | ≤ 100 | ≤ 100 |  |
| CCC1(c2cccc(-c3cn[nH]c3)c2)C2=C(CC(C)(C)NC2=O)Nc2n[nH]c(C)c21 (stereo not drawn) [Compound 945459] | ≤ 100 | ≤ 100 |  |  |  |
| CCC1(c2cccc(-c3cn(C)nc3C)c2)C2=C(CC(C)(C)NC2=O)Nc2n[nH]c(C)c21 (stereo not drawn) [Compound 945460] | ≤ 100 | ≤ 100 |  |  |  |
| CCC1(c2cccc(-c3ccncc3C)c2)C2=C(CC(C)(C)NC2=O)Nc2n[nH]cc21 (stereo not drawn) [Compound 945461] | ≤ 100 | ≤ 100 |  |  |  |
| CCC1(c2cccc(-c3c(C)nn(C)c3C)c2)C2=C(CC(C)(C)NC2=O)Nc2n[nH]cc21 (stereo not drawn) [Compound 945462] | ≤ 100 | ≤ 100 |  |  |  |
| CCC1(c2cccc(S(=O)(=O)C(C)C)c2)C2=C(CC(C)(C)NC2=O)Nc2n[nH]cc21 (stereo not drawn) [Compound 945464] | ≤ 100 | ≤ 100 |  |  |  |
| CCC1(c2cccc(N(C)C3CC3)c2)C2=C(CC(C)(C)CC2=O)Nc2n[nH]cc21 (stereo not drawn) [Compound 945466] |  |  | 100 to 1000 | 1000 to 5000 |  |
| CCC1(c2cccc(-c3cc(C)ncc3OC)c2)C2=C(CC(C)(C)CC2=O)Nc2n[nH]cc21 (stereo not drawn) [Compound 945468] |  |  | ≤ 100 | 100 to 1000 |  |
| CC[C@@]1(c2cccc(-c3ccncc3CO)c2)C2=C(CC(C)(C)CC2=O)Nc2n[nH]cc21 [Compound 945469] |  |  | ≤ 100 | ≤ 100 |  |
| CC[C@]1(c2cccc(-c3cn(C)nc3C)c2)C2=C(CC(C)(C)NC2=O)Nc2n[nH]cc21 [Compound 945470] | ≤ 100 | ≤ 100 |  |  | IC50 [1, 9]: 100 to 1000 nM; IC50 [2, 10]: 1000 to 5000 nM |
| CC[C@]1(c2cccc(-c3ccncc3OC)c2)C2=C(CC(C)(C)CC2=O)Nc2n[nH]cc21 [Compound 945471] |  |  | 1000 to 5000 | 1000 to 5000 | IC50 [1, 9]: > 5000 nM; IC50 [2, 10]: > 5000 nM |
| CC[C@]1(c2cccc(N(C)c3ccc(C(F)(F)F)nc3)c2)C2=C(CC(C)(C)CC2=O)Nc2n[nH]cc21 [Compound 945474] |  |  | ≤ 100 | 100 to 1000 |  |
| CC1(C)CC(=O)C2=C(C1)Nc1n[nH]cc1C21CN(c2ccccn2)C1 [Compound 945477] |  |  |  |  | IC50 [1, 7]: 1000 to 5000 nM; IC50 [2, 8]: 1000 to 5000 nM |

Further lines, with some results ahead:

| IC50 [1, 3] [nM] | IC50 [2, 4] [nM] | IC50 [1, 5] [nM] | IC50 [2, 6] [nM] | Structure (SMILES) | also measured |
| --- | --- | --- | --- | --- | --- |
|  |  | 100 to 1000 | 100 to 1000 | CC1(C)CC(=O)C2=C(C1)Nc1n[nH]cc1C21CN(c2ccc(C(F)(F)F)cc2)C1 [Compound 945478] |  |
| 1000 to 5000 | > 5000 |  |  | CC[C@@]1(c2cccc(-c3cn(C)nc3C)c2)C2=C(CC(C)(C)NC2=O)Nc2n[nH]cc21 [Compound 945480] |  |
|  |  | ≤ 100 | ≤ 100 | CCC1(c2cccc(-c3ccncc3OC)c2)C2=C(CC(C)(C)CC2=O)Nc2n[nH]cc21 (stereo not drawn) [Compound 945481] | IC50 [1, 9]: ≤ 100 nM; IC50 [2, 10]: 100 to 1000 nM |
|  |  | 100 to 1000 | 100 to 1000 | CC1(C)CC(=O)C2=C(C1)Nc1n[nH]cc1[C@]21CCCN(S(=O)(=O)Cc2ccccc2)CC1 [Compound 945483] |  |
|  |  | 1000 to 5000 | > 5000 | CC[C@@]1(c2cccc(-c3ccnc(C)c3)c2)C2=C(CC(C)(C)[C@H](F)C2=O)Nc2n[nH]cc21 [Compound 945486] |  |
|  |  | ≤ 100 | ≤ 100 | CCC1(c2cccc(-c3ccncc3C)c2)C2=C(CC(C)(C)CC2=O)Nc2n[nH]c(C(F)(F)F)c21 (stereo not drawn) [Compound 945527] | IC50 [1, 9]: ≤ 100 nM; IC50 [2, 10]: 100 to 1000 nM |
|  |  | ≤ 100 | ≤ 100 | CCC1(c2cccc(-c3ccncc3F)c2)C2=C(CC(C)(C)CC2=O)Nc2n[nH]c(C(F)(F)F)c21 (stereo not drawn) [Compound 945528] | IC50 [1, 9]: ≤ 100 nM; IC50 [2, 10]: 100 to 1000 nM |
|  |  | ≤ 100 | ≤ 100 | CCC1(c2cccc(-c3ccnn3C)c2)C2=C(CC(C)(C)CC2=O)Nc2n[nH]c(C(F)(F)F)c21 (stereo not drawn) [Compound 945531] | IC50 [1, 9]: ≤ 100 nM; IC50 [2, 10]: 100 to 1000 nM |
|  |  | ≤ 100 | ≤ 100 | CCC1(c2cccc(-c3cc(C)nn3C)c2)C2=C(CC(C)(C)CC2=O)Nc2n[nH]c(C(F)(F)F)c21 (stereo not drawn) [Compound 945532] | IC50 [1, 9]: ≤ 100 nM; IC50 [2, 10]: 100 to 1000 nM |
|  |  | ≤ 100 | ≤ 100 | CCC1(c2cccc(-c3cnn4c3CCCC4)c2)C2=C(CC(C)(C)CC2=O)Nc2n[nH]cc21 (stereo not drawn) [Compound 945543] | IC50 [1, 9]: 100 to 1000 nM; IC50 [2, 10]: 1000 to 5000 nM |
|  |  | 100 to 1000 | > 5000 | CCC1(c2cccc(-c3cnn4c3CCCC4)c2)C2=C(CC(C)(C)CC2=O)Nc2n[nH]cc21 (stereo not drawn) [Compound 945544] |  |
|  |  | 1000 to 5000 | > 5000 | CC[C@@]1(c2cccc(-c3cn(C)nc3C)c2)C2=C(CC(C)(C)CC2=O)Nc2n[nH]cc21 [Compound 945545] |  |
|  |  | ≤ 100 | ≤ 100 | CC[C@]1(c2cccc(-c3cn(C)nc3C)c2)C2=C(CC(C)(C)CC2=O)Nc2n[nH]cc21 [Compound 945546] | IC50 [1, 9]: ≤ 100 nM; IC50 [2, 10]: 100 to 1000 nM |
|  |  | 1000 to 5000 | > 5000 | CC1(C)CC(=O)C2=C(C1)Nc1n[nH]cc1[C@@]21CCCc2c(-c3ccncc3)cccc21 [Compound 945547] |  |
|  |  | ≤ 100 | ≤ 100 | CC1(C)CC(=O)C2=C(C1)Nc1n[nH]cc1[C@]21CCCc2c(-c3ccncc3)cccc21 [Compound 945548] |  |
|  |  | ≤ 100 | ≤ 100 | Cc1cc(-c2cccc3c2CCC[C@]32C3=C(CC(C)(C)CC3=O)Nc3n[nH]cc32)ccn1 [Compound 945549] |  |
|  |  | 100 to 1000 | > 5000 | Cc1cc(-c2cccc3c2CCC[C@@]32C3=C(CC(C)(C)CC3=O)Nc3n[nH]cc32)ccn1 [Compound 945550] |  |
|  |  | ≤ 100 | ≤ 100 | Cn1nccc1-c1cccc2c1CCC[C@]21C2=C(CC(C)(C)CC2=O)Nc2n[nH]cc21 [Compound 945551] |  |
|  |  | 100 to 1000 | > 5000 | Cn1nccc1-c1cccc2c1CCC[C@@]21C2=C(CC(C)(C)CC2=O)Nc2n[nH]cc21 [Compound 945552] |  |
| ≤ 100 | ≤ 100 |  |  | CCC1(c2cccc(-c3c(C)nn(C)c3C)c2)C2=C(CC(C)(C)NC2=O)Nc2n[nH]c(C)c21 (stereo not drawn) [Compound 945598] |  |
|  |  | 100 to 1000 | 1000 to 5000 | CCc1cc(N(C)c2cccc(C3(CC)C4=C(CC(C)(C)CC4=O)Nc4n[nH]cc43)c2)ccn1 (stereo not drawn) [Compound 945600] |  |
|  |  | 100 to 1000 | 100 to 1000 | CCC1(c2cccc(CS(C)(=O)=O)c2)C2=C(CC(C)(C)CC2=O)Nc2n[nH]cc21 (stereo not drawn) [Compound 945601] |  |
| 1000 to 5000 | > 5000 |  |  | CCC1(c2cccc(N3CCOCC3)c2)C2=C(CC(C)(C)NC2=O)Nc2n[nH]cc21 (stereo not drawn) [Compound 945602] |  |
